{"source": "paper PMC9325670", "about": "“Limited nutrient availability in the tumor microenvironment renders pancreatic tumors sensitive to allosteric IDH1 inhibitors” (Nature Cancer, 2022)", "biological_target": "T1, wild-type isocitrate dehydrogenase 1 (wtIDH1) (Homo sapiens, UniProt O75874)", "T1 construct": "gene IDH1; human recombinant IDH1", "T1 sequence (O75874 2-414)": "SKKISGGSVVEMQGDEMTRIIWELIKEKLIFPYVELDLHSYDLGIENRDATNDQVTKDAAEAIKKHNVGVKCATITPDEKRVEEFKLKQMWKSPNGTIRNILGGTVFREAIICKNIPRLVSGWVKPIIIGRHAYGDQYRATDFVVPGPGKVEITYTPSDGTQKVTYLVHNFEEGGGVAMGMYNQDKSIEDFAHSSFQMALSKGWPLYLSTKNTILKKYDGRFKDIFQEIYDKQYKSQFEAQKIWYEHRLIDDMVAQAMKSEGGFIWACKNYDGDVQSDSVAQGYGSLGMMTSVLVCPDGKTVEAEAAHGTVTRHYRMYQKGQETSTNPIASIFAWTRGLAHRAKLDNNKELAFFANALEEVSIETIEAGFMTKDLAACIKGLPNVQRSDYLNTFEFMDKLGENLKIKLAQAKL", "experiment": "cell-free fluorometric NADPH formation assay at […] Mg2+", "type": "biochemical"}
{"smiles": "CC1(C)CN(C(=O)c2cn[nH]c2)Cc2c(C(=O)Nc3ccc(F)cc3)nn(Cc3ccc(C(F)(F)F)cc3)c21", "note": "[FSM-3-002]", "values": [{"measurement": "IC50", "result": 0.0914, "unit": "µM"}]}
